Values after ≈ are worked out from the molar mass of the structure shown. Active and inactive are the calls of the source. The rule behind the calls is not given here.
Legend:
[1] = Cytotoxicity against human KBVIN cells in presence of vinblastine; assay type: functional; conditions: read-out: ED50 (the source's name)
[2] = Antimitotic activity in rat ASK cells assessed as astrocyte generation at […] by light microscopy; assay type: functional; conditions: read-out: ED50 (the source's name)
LNCaP = assay: Cytotoxicity against human LNCAP cells; assay type: functional; conditions: read-out: ED50 (the source's name)
KB = assay: Cytotoxicity against human KB cells; assay type: functional; conditions: read-out: ED50 (the source's name)
Lu1 = assay: Cytotoxicity against human Lu1 cells; assay type: functional; conditions: read-out: ED50 (the source's name)
[3] = Cytotoxicity against human KBVIN cells in absence of vinblastine; assay type: functional; conditions: read-out: ED50 (the source's name)
ZR-75-1 = assay: Cytotoxicity against human ZR-75-1 cells; assay type: functional, cell-based

| SMILES | EC50 [1] | EC50 [2] | EC50 (LNCaP) | EC50 (KB) | EC50 (Lu1) | EC50 [3] | Activity (ZR-75-1) |
| --- | --- | --- | --- | --- | --- | --- | --- |
| CCNC1=CC2=N[C@H]3N(C)CC[C@@]3(C)C2=CC1=O | 0.6 µg/mL | 1.9 µg/mL (≈ 7.74 µM) | 0.3 µg/mL (≈ 1.22 µM) | 0.2 µg/mL (≈ 0.815 µM) | 1.5 µg/mL (≈ 6.11 µM) | 0.8 µg/mL (≈ 3.26 µM) | inactive |
| CN1CC[C@@]2(C)C3=CC(=O)C(=O)C=C3N(C)[C@@H]12 [RUBRESERINE] | > 20 µg/mL | > 20 µg/mL | 13.1 µg/mL (≈ 56.4 µM) | > 20 µg/mL | > 20 µg/mL | 16.8 µg/mL (≈ 72.3 µM) | Active |

Reference: ChEMBL document CHEMBL1158310, “Cytotoxic Degradation Product of Physostigmine” (1996)
